In US12466831B2, “Substituted amino triazolopyrimidine and amino triazolopyrazine adenosine receptor antagonists, pharmaceutical compositions and their use” (Merck Sharp & Dohme LLC, priority 2018, dated 2025):

Columns and labels:
[1] = target: T1, human A2a adenosine receptor (Homo sapiens, UniProt P29274); test: A2a binding affinity using radioligand binding, Method (A); conditions: Method (A): [3H]SCH58261 filtration binding, membranes expressing human A2a
T1 construct: purchased Perkin Elmer RBHA2aM400UA; host or cells: HEK293 or CHO cells (recombinant expression)
From the text: (§1) Method (A) describes the procedure used to measure A2a binding affinity using radioligand binding. Method (B) describes the procedure used to measure A2a binding affinity using SPA technology. The method used to measure A2b binding affinity is also described below. The method used to determine the A2a IC50 value reported for each compound in the table is indicated next to the reported value. The A2b IC50 value measured using the A2b binding affinity assay is shown in the table next to the compound under the corresponding A2a value.
The A2a receptor affinity binding assay measured the amount of binding of a tritiated ligand with high affinity for the A2a adenosine receptor to membranes made from HEK293 or CHO cells recombinantly expressing the human A2a adenosine receptor, in the presence of varying concentrations of a compound of the invention. The data were generated using either filtration binding or a homogenous scintillation proximity assay (SPA).
Method (A): Measurement of A2a Binding Affinity Using Radioligand Binding
148 μL (5 μg/mL) membranes (Perkin Elmer, Cat. No. RBHA2aM400UA) and 2 μL compounds of the invention to be tested (test compound) were transferred to individual wells of a 96-well polypropylene assay plate and incubated for 15 to 30 minutes at room temperature. [^3H] SCH58261 ((7-(2-phenylethyl)-5-amino-2-(2-furyl)-pyrazolo-[4,3-e]-1,2,4-triazolo[1,5-c]pyrimidine)) was diluted in assay buffer (50 mM Tris pH 7.4, 10 mM MgCl2, 0.005% Tween20) to a concentration of 4 nM and 50 μL transferred to each well of the assay plate. To define total and non-specific binding, wells containing 1% DMSO and 1 μM ZM241385 (Tocris Bioscience, Cat. No. 1036) respectively, were also included. The assay plate was incubated at room temperature for 60 minutes with agitation. Using a FilterMate Harvester® (Perkin Elmer), the contents of the assay plate were filtered through a UniFilter-96® PEI coated plate (Perkin Elmer Cat. No. 6005274 or 6005277). Filtering was achieved by aspirating the contents of the assay plate for 5 seconds, then washing and aspirating the contents three times with ice-cooled wash buffer (50 mM Tris-HCl pH 7.4, 150 mM NaCl) and allowing the vacuum manifold to dry the plate for 30 seconds. The filter plate was incubated for at least 1 hour at 55° C. and allowed to dry. The bottom of the filter plate was sealed with backing tape. 40 μL Ultima Gold™ (Perkin Elmer, Cat. No. 6013329) was added to each well of the filter plate and the top of the plate was sealed with TopSeal-A PLUS® clear plate seal (Perkin Elmer, Cat. No. 6050185). The plate was incubated for at least 20 minutes, and then the amount of radioactivity remaining in each well was determined using a TopCount® (Perkin Elmer) scintillation counter. After normalization to total and non-specific binding, the percent effect at each compound concentration was calculated. The plot of percent effect versus the log of compound concentration was analyzed electronically using a 4-parameter logistic fit based on the Levenberg-Marquardt algorithm to generate IC50 values.

[2] = target: T2, human A2b adenosine receptor (Homo sapiens, UniProt P29275); test: A2b binding affinity, radioligand filtration binding assay; conditions: tritiated proprietary A2b antagonist, HEK293 membranes expressing human A2b
T2 construct: purchased Perkin Elmer ES-013-C; host or cells: HEK293 cells recombinantly expressing the receptor; membranes made from them
T2 sequence (P29275 1-332): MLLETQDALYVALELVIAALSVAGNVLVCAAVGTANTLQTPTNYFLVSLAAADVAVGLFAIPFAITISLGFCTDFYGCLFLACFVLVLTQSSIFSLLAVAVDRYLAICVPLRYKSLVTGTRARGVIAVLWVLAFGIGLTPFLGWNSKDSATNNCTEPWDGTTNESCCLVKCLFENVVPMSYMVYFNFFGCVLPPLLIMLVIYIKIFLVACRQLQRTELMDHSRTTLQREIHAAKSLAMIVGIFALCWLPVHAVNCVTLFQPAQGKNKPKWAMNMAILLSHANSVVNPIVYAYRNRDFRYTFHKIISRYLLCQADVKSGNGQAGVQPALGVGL
From the text: as §1
Measurement of A2b Binding Affinity
The reported affinity of the compounds of the invention for the human A2b adenosine receptor was determined experimentally using a radioligand filtration binding assay. This assay measures the amount of binding of a tritiated proprietary A2b receptor antagonist, in the presence and absence of a compound of the invention, to membranes made from HEK293 cells recombinantly expressing the human A2b adenosine receptor (Perkin Elmer, Cat. No. ES-013-C).
148 μL (135 μg/mL) membranes and 2 μL test compounds were transferred to individual wells of a 96-well polypropylene assay plate and incubated for 15 to 30 minutes at room temperature with agitation. Tritiated radioligand was diluted to a concentration of 14 nM in assay buffer (phosphate buffered saline without Magnesium and Calcium, pH 7.4; GE Healthcare Life Sciences, Cat. No. SH30256.01) and then 50 μL of the solution were transferred to each well of the assay plate. To define total and non-specific binding, wells containing 1% DMSO and 20 μM N-ethylcarboxamidoadenosine (Tocris Bioscience, Cat. No. 1691) respectively, were also included. The wells of the assay plate were incubated at room temperature for 60 minutes with agitation, then filtered using a FilterMate Harvester® (Perkin Elmer) or similar equipment through a UniFilter-96® PEI coated plate (Perkin Elmer Cat. No. 6005274 or 6005277). Filtering was achieved by aspirating the contents of the assay plate for 5 seconds, then washing and aspirating the contents three times with ice-cooled wash buffer (assay buffer supplemented with 0.0025% Brij58) and allowing the vacuum manifold to dry the plate for 30 seconds. The filter plate was incubated for at least 1 hour at 55° C. and allowed to dry. The bottom of the filter plate was then sealed with backing tape. 40 μL Ultima Gold™ (Perkin Elmer, Cat. No. 6013329) was added to each well of the filter plate and the top of the plate was sealed with TopSeal-A PLUS® clear plate seal (Perkin Elmer, Cat. No. 6050185). The plates were then incubated for at least 20 minutes, and then the amount of radioactivity remaining in each well was determined using a TopCount® (Perkin Elmer) scintillation counter. After normalization to total and non-specific binding, the percent effect at each compound concentration was calculated. The plot of percent effect versus the log of compound concentration was analyzed electronically using a 4-parameter logistic fit based on the Levenberg-Marquardt algorithm to generate IC50 values.

T1 sequence (P29274 whole entry): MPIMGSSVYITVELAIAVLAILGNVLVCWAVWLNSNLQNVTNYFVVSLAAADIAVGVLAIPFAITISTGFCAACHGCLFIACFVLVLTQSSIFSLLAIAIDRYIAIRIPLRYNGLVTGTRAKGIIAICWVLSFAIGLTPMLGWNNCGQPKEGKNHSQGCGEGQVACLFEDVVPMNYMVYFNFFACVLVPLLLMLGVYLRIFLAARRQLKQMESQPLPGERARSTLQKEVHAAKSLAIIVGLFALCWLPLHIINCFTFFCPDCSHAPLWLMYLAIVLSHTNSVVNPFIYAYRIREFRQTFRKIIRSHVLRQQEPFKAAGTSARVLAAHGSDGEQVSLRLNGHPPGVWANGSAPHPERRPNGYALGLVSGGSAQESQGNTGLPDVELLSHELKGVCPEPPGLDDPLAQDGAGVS

SMILES | IC50 [1] [nM] | IC50 [2] [nM]
Cc1c(-c2ncco2)nc(N)n2nc(C3CCN(c4cnn(CC(C)(C)O)c4)C3)nc12 (single isomer, unassigned) [Example 3.15-1, (R or S)-1-(4-(3-(5-amino-8-methyl-7-(oxazol-2-yl)-[1,2,4]triazolo[1,5-c]pyrimidin-2-yl)pyrrolidin-1-yl)-1H-pyrazol-1-yl)-2-methylpropan-2-ol] | 42.6 | 386
Cc1c(-c2ncco2)nc(N)c2nc(C3(c4ncccc4F)CC3)nn12 [Example 2.7, 2-(1-(3-fluoropyridin-2-yl)cyclopropyl)-5-methyl-6-(oxazol-2-yl)-[1,2,4]triazolo[1,5-a]pyrazin-8-amine] | 56.4 | 2910
Cc1nn(CC(C)(C)O)cc1N1CCC[C@@H](c2nc3c(C)c(-c4ncco4)nc(N)n3n2)C1 [Example 3.9, (R)-1-(4-(3-(5-amino-8-methyl-7-(oxazol-2-yl)-[1,2,4]triazolo[1,5-c]pyrimidin-2-yl)piperidin-1-yl)-3-methyl-1H-pyrazol-1-yl)-2-methylpropan-2-ol] | 0.1 | 553
Cc1cc(N2CCC[C@@H](c3nc4c(C)c(-c5ncco5)nc(N)n4n3)C2)cnc1OC(F)F [Example 3.13, (R)-2-(1-(6-(difluoromethoxy)-5-methylpyridin-3-yl)piperidin-3-yl)-8-methyl-7-(oxazol-2-yl)-[1,2,4]triazolo[1,5-c]pyrimidin-5-amine] | 1.6 | 149
Cc1c(-c2ncco2)nc(N)n2nc([C@@H]3CCCN(c4cnn(CC(C)(C)O)c4)C3)nc12 [Example 3.7, (R)-1-(4-(3-(5-amino-8-methyl-7-(oxazol-2-yl)-[1,2,4]triazolo[1,5-c]pyrimidin-2-yl)piperidin-1-yl)-1H-pyrazol-1-yl)-2-methylpropan-2-ol] | 4.7 | 224
Cc1c(-c2ncco2)nc(N)n2nc([C@H]3C[C@@H](O)C3)nc12 [Example 2.8, (1s,3s)-3-(5-amino-8-methyl-7-(oxazol-2-yl)-[1,2,4]triazolo[1,5-c]pyrimidin-2-yl)cyclobutan-1-ol] | 72.9 | 250
Cc1c(-c2ncco2)nc(N)n2nc([C@@H]3CCCN(c4cnn(CC(F)(F)F)c4)C3)nc12 [Example 3.5, (R)-8-methyl-7-(oxazol-2-yl)-2-(1-(1-(2,2,2-trifluoroethyl)-1H-pyrazol-4-yl)piperidin-3-yl)-[1,2,4]triazolo[1,5-c]pyrimidin-5-amine] | 1.3 | 34.4
CCn1cc(N2CCC[C@@H](c3nc4c(C)c(-c5ncco5)nc(N)n4n3)C2)cn1 [Example 3.3, (R)-2-(1-(1-ethyl-1H-pyrazol-4-yl)piperidin-3-yl)-8-methyl-7-(oxazol-2-yl)-[1,2,4]triazolo[1,5-c]pyrimidin-5-amine] | 0.9 | 155
CCn1cc(N2C[C@@H](c3nc4c(C)c(-c5ncco5)nc(N)n4n3)CC[C@H]2C)cn1 [Example 2.15, 2-((3S,6R)-1-(1-ethyl-1H-pyrazol-4-yl)-6-methylpiperidin-3-yl)-8-methyl-7-(oxazol-2-yl)-[1,2,4]triazolo[1,5-c]pyrimidin-5-amine] | 20 | 2400

Continued, values first:

IC50 [1] [nM] | IC50 [2] [nM] | SMILES
7.9 | 5560 | Cc1c(-c2ncco2)nc(N)n2nc(C3CCCC(C)(O)C3)nc12 (single isomer, unassigned) [Example 8.3-1, (1-R or S,3-R or S)-3-(5-amino-8-methyl-7-(oxazol-2-yl)-[1,2,4]triazolo[1,5-c]pyrimidin-2-yl)-1-methylcyclohexan-1-ol]
30.6 | 5550 | Cc1c(-c2ncco2)nc(N)n2nc(C3CCCC(C)(O)C3)nc12 (single isomer, unassigned) [Example 8.2-1, (1-R or S,3-R or S)-3-(5-amino-8-methyl-7-(oxazol-2-yl)-[1,2,4]triazolo[1,5-c]pyrimidin-2-yl)-1-methylcyclohexan-1-ol]
218 | 436 | Cc1c(-c2cc(F)ccc2F)nc(N)c2nc([C@@H]3CCCN(c4cnn(C)c4)C3)nn12 (single isomer, unassigned) [Example 2.6]
6.5 | 142 | Cc1c(-c2ncco2)nc(N)c2nc(C3CCC(C)(O)C3)nn12 (single isomer, unassigned) [Example 8.6, (1R,3S and 1S,3R) or (1R,3R and 1S,3S)-(8-amino-5-methyl-6-(oxazol-2-yl)-[1,2,4]triazolo[1,5-a]pyrazin-2-yl)-1-methylcyclopentan-1-ol]
132 | ≥ 10000 | Cc1c(-c2cccc(F)c2)nc(N)c2nc(C3CCCC(C)(O)C3)nn12 (single isomer, unassigned) [Example 8.11-1, (1R,3S or 1S,3R or 1R,3R or 1S,3S)-1-3-(8-amino-6-(3-fluorophenyl)-5-methyl-[1,2,4]triazolo[1,5-a]pyrazin-2-yl)-1-methylcyclohexan-1-ol]
47.6 | 2150 | CCn1cc(N2C[C@@H](c3nc4c(C)c(-c5cccc(F)c5)nc(N)n4n3)CC[C@H]2C)cn1 [Example 2.17, 2-((3S,6R)-1-(1-ethyl-1H-pyrazol-4-yl)-6-methylpiperidin-3-yl)-7-(3-fluorophenyl)-8-methyl-[1,2,4]triazolo[1,5-c]pyrimidin-5-amine]
70.5 | 350 | Cc1c(-c2cccc(F)c2)nc(N)c2nc(C3CCC(C)(O)C3)nn12 (single isomer, unassigned) [Example 8.8, (1R,3S and 1S,3R) or (1R,3R and 1S,3S)-3-(8-amino-6-(3-fluorophenyl)-5-methyl-[1,2,4]triazolo[1,5-a]pyrazin-2-yl)-1-methylcyclopentan-1-ol]
